Reference: US5179088A, “1-Carba(dethia)cephalosporin antibiotics” (Eli Lilly and Company, priority 1990, dated 1993)

Key:
Format in all cases: cell-based
Design in all cases: unit not given here
[1] = tested on: E. coli; assay: in vitro antibacterial activity, agar dilution (E. coli)
Method: (§1) *minimum inhibitory concentrations were determined by the Agardilution

[2] = tested on: Klebsiella; assay: in vitro antibacterial activity, agar dilution (Klebsiella)
Method: as §1

[3] = tested on: Shig. sonn; assay: in vitro antibacterial activity, agar dilution (Shig. sonn); details: strain N9
Method: as §1

[4] = tested on: Streptococcus pn; assay: in vitro antibacterial activity, agar dilution (Streptococcus pn); details: strain PARK
Method: as §1

[5] = tested on: Proteus rett; assay: in vitro antibacterial activity, agar dilution (Proteus rett); details: strain C24
Method: as §1

[6] = tested on: Streptococcus D; assay: in vitro antibacterial activity, agar dilution (Streptococcus D)
Method: as §1

[7] = tested on: Acin; assay: in vitro antibacterial activity, agar dilution (Acin); details: strain AC12
Method: as §1

[8] = tested on: Streptococcus A; assay: in vitro antibacterial activity, agar dilution (Streptococcus A); details: strain C203
Method: as §1

[9] = tested on: Citro; assay: in vitro antibacterial activity, agar dilution (Citro); details: strain CF17
Method: as §1

[10] = tested on: Staphylococcus Epi; assay: in vitro antibacterial activity, agar dilution (Staphylococcus epi)
Method: as §1

[11] = tested on: Proteus incon; assay: in vitro antibacterial activity, agar dilution (Proteus incon); details: strain PR33
Method: as §1

[12] = tested on: Pseudomonas; assay: in vitro antibacterial activity, agar dilution (Pseudomonas)
Method: as §1

[13] = tested on: Staphylococcus Aureus; assay: in vitro antibacterial activity, agar dilution (Staphylococcus aureus)
Method: as §1

[14] = tested on: Enterbacter Cloacea; assay: in vitro antibacterial activity, agar dilution (Enterobacter cloacae)
Method: as §1

[15] = tested on: Proteus morg; assay: in vitro antibacterial activity, agar dilution (Proteus morg); details: strain PR15
Method: as §1

[16] = tested on: Enterbacter Aerogenes; assay: in vitro antibacterial activity, agar dilution (Enterobacter aerogenes)
Method: as §1

[17] = tested on: Serratia; assay: in vitro antibacterial activity, agar dilution (Serratia)
Method: as §1

[18] = tested on: Salmonella; assay: in vitro antibacterial activity, agar dilution (Salmonella)
Method: as §1

[19] = tested on: H. Influ.; assay: in vitro antibacterial activity, agar dilution (H. influ.)
Method: as §1

| SMILES | minimum inhibitory concentration ([1]; strain N10) | minimum inhibitory concentration ([1]; strain TEM) | minimum inhibitory concentration ([2]; strain KAE) | minimum inhibitory concentration ([2]; strain X26) | minimum inhibitory concentration ([2]; strain X68) | minimum inhibitory concentration [3] | minimum inhibitory concentration [4] | minimum inhibitory concentration [5] | minimum inhibitory concentration ([6]; strain 2041) | minimum inhibitory concentration ([6]; strain X66) | minimum inhibitory concentration [7] | minimum inhibitory concentration [8] | minimum inhibitory concentration [9] | minimum inhibitory concentration ([10]; strain 222) | minimum inhibitory concentration ([10]; strain 270) | minimum inhibitory concentration [11] | minimum inhibitory concentration ([12]; strain PS18) | minimum inhibitory concentration ([12]; strain PS72) | minimum inhibitory concentration ([12]; strain X239) | minimum inhibitory concentration ([12]; strain X528) | also measured |
| --- | --- | --- | --- | --- | --- | --- | --- | --- | --- | --- | --- | --- | --- | --- | --- | --- | --- | --- | --- | --- | --- |
| CO/N=C(\C(=O)N[C@@H]1C(=O)N2C(C(=O)O)=C(c3csc(-c4ccccc4)n3)CC[C@H]12)c1csc(N)n1 [Example 31, Sodium 7β-[(2-aminothiazol-4-yl)-Z-methoximinoacetylamino]-1-carba-(1-dethia)-3-[2-(2-phenyl)thiazol-4-yl]-3-cephem-4-carboxylate] | 2 | 1 | 1 | .015 | 1 | 1 | < .008 | .25 | 4 | > 128 | 128 | < .008 | 4 | 2 | 8 | .5 | > 128 | > 128 | > 128 | > 128 | minimum inhibitory concentration ([1]; strain EC14): 1; minimum inhibitory concentration ([13]; strain S13E): 128; minimum inhibitory concentration ([13]; strain V41): 2; minimum inhibitory concentration ([13]; strain X1.1): 1; minimum inhibitory concentration ([13]; strain X400): > 128; minimum inhibitory concentration ([14]; strain 265A): 64; minimum inhibitory concentration ([14]; strain EB5): 1; minimum inhibitory concentration [15]: 2; minimum inhibitory concentration ([16]; strain C32): 1; minimum inhibitory concentration ([16]; strain EB17): 1; minimum inhibitory concentration ([17]; strain SE3): 8; minimum inhibitory concentration ([17]; strain X99): 4; minimum inhibitory concentration ([18]; strain 1335): 4; minimum inhibitory concentration ([18]; strain X514): 2; minimum inhibitory concentration ([19]; res, strain 76): .03; minimum inhibitory concentration ([19]; sens, strain C.L.): .06 |
| CO/N=C(\C(=O)N[C@@H]1C(=O)N2C(C(=O)O)=C(c3csc(C(c4ccccc4)c4ccccn4)n3)CC[C@H]12)c1csc(N)n1 (stereo partly drawn) [Example 38, 7β-[(2-aminothiazol-4-yl)-Z-methoximinoacetylamino]-1-carba-(1-dethia)-3-[2-(phenyl)(2-pyridyl)methyl)thiazol-4-yl-3-cephem-4-carboxylic acid] | 8 | 4 | 128 | .125 | 4 | 8 | .015 | 4 | 8 | > 128 | 64 | < .008 | 32 | 64 | 64 | 4 | > 128 | > 128 | > 128 | > 128 | minimum inhibitory concentration ([1]; strain EC14): 4; minimum inhibitory concentration ([13]; strain S13E): > 128; minimum inhibitory concentration ([13]; strain V41): 32; minimum inhibitory concentration ([13]; strain X1.1): 4; minimum inhibitory concentration ([13]; strain X400): > 128; minimum inhibitory concentration ([14]; strain 265A): > 128; minimum inhibitory concentration ([14]; strain EB5): 8; minimum inhibitory concentration [15]: 32; minimum inhibitory concentration ([16]; strain C32): 8; minimum inhibitory concentration ([16]; strain EB17): 8; minimum inhibitory concentration ([17]; strain SE3): 64; minimum inhibitory concentration ([17]; strain X99): 8; minimum inhibitory concentration ([18]; strain 1335): 8; minimum inhibitory concentration ([18]; strain X514): 4; minimum inhibitory concentration ([19]; res, strain 76): .125; minimum inhibitory concentration ([19]; sens, strain C.L.): 2 |
| CO/N=C(\C(=O)N[C@@H]1C(=O)N2C(C(=O)O)=C(c3csc(N)n3)CC[C@H]12)c1csc(N)n1 [Example 39] | 1 | .5 | 2 | .015 | .5 | .25 | .015 | .25 | 8 | > 128 | 128 | < .008 | 8 | 32 | 16 | .25 | > 128 | > 128 | > 128 | > 128 | minimum inhibitory concentration ([1]; strain EC14): .5; minimum inhibitory concentration ([13]; strain S13E): > 128; minimum inhibitory concentration ([13]; strain V41): 8; minimum inhibitory concentration ([13]; strain X1.1): 4; minimum inhibitory concentration ([13]; strain X400): > 128; minimum inhibitory concentration ([14]; strain 265A): > 128; minimum inhibitory concentration ([14]; strain EB5): 2; minimum inhibitory concentration [15]: 4; minimum inhibitory concentration ([16]; strain C32): 1; minimum inhibitory concentration ([16]; strain EB17): .5; minimum inhibitory concentration ([17]; strain SE3): 8; minimum inhibitory concentration ([17]; strain X99): 1; minimum inhibitory concentration ([18]; strain 1335): 2; minimum inhibitory concentration ([18]; strain X514): 1; minimum inhibitory concentration ([19]; res, strain 76): .06; minimum inhibitory concentration ([19]; sens, strain C.L.): .06 |
| CO/N=C(\C(=O)N[C@@H]1C(=O)N2C(C(=O)O)=C(c3csc(-c4ncc([N+](=O)[O-])s4)n3)CC[C@H]12)c1csc(N)n1 [Example 36] | .25 | .25 | .5 | < .008 | .25 | .25 | < .008 | .06 | 4 | 64 | 32 | .015 | .06 | 2 | 1 | .25 | > 128 | > 128 | 32 | 32 | minimum inhibitory concentration ([13]; strain S13E): 32; minimum inhibitory concentration ([13]; strain V41): 2; minimum inhibitory concentration ([13]; strain X1.1): .25; minimum inhibitory concentration ([13]; strain X400): 16; minimum inhibitory concentration ([14]; strain 265A): .5; minimum inhibitory concentration ([14]; strain EB5): 1; minimum inhibitory concentration [15]: .25; minimum inhibitory concentration ([16]; strain C32): .125; minimum inhibitory concentration ([16]; strain EB17): .25; minimum inhibitory concentration ([17]; strain SE3): 4; minimum inhibitory concentration ([17]; strain X99): 1; minimum inhibitory concentration ([18]; strain 1335): .5; minimum inhibitory concentration ([18]; strain X514): .25; minimum inhibitory concentration ([19]; res, strain 76): < .008; minimum inhibitory concentration ([19]; sens, strain C.L.): .015 |
